PubChem BioAssay (NCI)
Values joined by “and” are separate entries in the source; they are usually repeats but may differ in a detail not shown here. Identical values can stand only once.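 Grown in 96-well plates, cells were treated for 48 hours with each compound at five concentrations. Insufficient inhibition: endpoint recorded as highest concentration tested. The concentration for 50% growth inhibition is given as GI50. TGI: concentration producing complete growth inhibition.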

Key:
Test in all cases: NCI tumour cell line growth inhibition, 48 h
[1] = test system: CAKI-1 renal
[2] = test system: HOP-92 NSCLC
[3] = test system: NCI-H23 lung
[4] = test system: SR leukemia
[5] = test system: UACC-62 melanoma
[6] = test system: SK-OV-3 ovarian
[7] = test system: A549 NSCLC
[8] = test system: CCRF-CEM leukemia
[9] = test system: MALME-3M melanoma

Structure (SMILES)	TGI [1]	TGI [2]	TGI [3]	TGI [4]	TGI [5]	TGI [6]	TGI [7]	TGI [8]	TGI [9]	GI50 [2]	GI50 [3]	GI50 [4]	GI50 [5]	GI50 [7]	GI50 [8]	GI50 [9]	GI50 [6]
O=C(OC[C@H]1O[C@@H](OC(=O)c2cc(O)c(O)c(O)c2)[C@H](OC(=O)c2cc(O)c(O)c(O)c2)[C@@H](OC(=O)c2cc(O)c(O)c(O)c2)[C@@H]1OC(=O)c1cc(O)c(O)c(O)c1)c1cc(O)c(O)c(O)c1	85.6 µM	37.4 µM	7.71 µM	> 100 µM	6.44 µM	> 100 µM	19.8 µM	> 100 µM									
O=c1[nH]c(=O)n(C2OC3COC2C3O)cc1F (configuration not stated)	> 100 µM	> 100 µM	> 100 µM			> 100 µM	> 100 µM	> 100 µM	> 100 µM								
C=C1C(=O)OC2/C=C(\C=O)CC/C=C(\C)C(O)C[C@@H]12 (some centres not stated)		17.2 µM	17.7 µM	> 27.6 µM	18.5 µM	52.5 µM	33.9 µM	> 26.5 µM	22.2 µM								
O=C([CH-]C(=O)C(F)(F)F)c1ccccc1.O=C([CH-]C(=O)C(F)(F)F)c1ccccc1.O=C([CH-]C(=O)C(F)(F)F)c1ccccc1.O=C([CH-]C(=O)C(F)(F)F)c1ccccc1.[Eu+3].c1ccncc1		45.6 µM	19.5 µM	19.7 µM	63.3 µM		> 100 µM	32.7 µM		9.02 µM	3.7 µM	3.86 µM	6.67 µM	25.6 µM	2.64 µM		
COc1ccc(/C=C2\C(=O)N(C(=O)Cc3ccccc3)N=C2C)cc1OC	> 100 µM		> 100 µM	> 100 µM			> 100 µM	> 100 µM	> 100 µM								
N.N.N.N.N.N.O=N[O-].[Br-].[Co+3].[Co+3].[OH3+].[OH3+]		> 100 µM	> 100 µM	> 100 µM	> 100 µM	> 100 µM	> 100 µM	> 100 µM	> 100 µM	> 100 µM	> 100 µM	> 100 µM	> 100 µM	> 100 µM	> 100 µM	> 100 µM	> 100 µM
c1cc(CNC2C3CCC(C3)C2c2c[nH]c3ccccc23)cc(CNC2C3CCC(C3)C2c2c[nH]c3ccccc23)c1 (configuration not stated)		2.33 µM and 2.63 µM	3.34 µM and 2.88 µM	0.773 µM	3.04 µM		> 100 µM	> 100 µM	3.45 µM	1.09 µM and 1.29 µM	1.47 µM						
COC(=O)c1c(-c2ccccc2)sc(-c2cccc3ccccc23)c1C(=O)OC	> 100 µM	> 100 µM	> 100 µM		> 100 µM	> 100 µM	> 100 µM	> 100 µM	> 100 µM								
Cc1cc2c(=O)c3ccccc3[nH]c2c(C(=O)O)c1C	> 100 µM		> 100 µM	> 100 µM	> 100 µM		> 100 µM	> 100 µM									
CCOC(=O)COS(=O)(=O)C(F)(F)F	> 100 µM	> 100 µM	> 100 µM	49.1 µM	> 100 µM	> 100 µM	> 100 µM	> 100 µM	> 100 µM								
C=C=C(C(=O)OC)S(=O)c1ccc([N+](=O)[O-])cc1[N+](=O)[O-] (configuration not stated)	63.1 µM	66.7 µM	> 87.3 µM	35.4 µM	> 71.4 µM	> 100 µM	> 100 µM	32.5 µM	> 86.2 µM								
COc1cc(Br)c(C=Nc2cccc3ccc(OS(=O)(=O)c4cccc([N+](=O)[O-])c4)cc23)cc1OC	> 100 µM	35.3 µM	44.8 µM	> 100 µM	> 100 µM	> 100 µM	> 100 µM	> 100 µM	> 100 µM								
CNC(=S)N/N=C/c1ccc([N+](=O)[O-])s1	> 10 µM	> 10 µM	> 10 µM	> 10 µM	> 10 µM	> 10 µM	> 10 µM	> 10 µM	> 10 µM								
Nc1nc(CCC(=O)Nc2cccc(C(F)(F)F)c2)cc(-c2ccc3ccccc3c2)n1	> 100 µM	> 100 µM	> 100 µM	> 100 µM	> 100 µM	> 100 µM	> 100 µM	> 100 µM	> 100 µM								
S=c1nc(-c2cccnc2)[nH][nH]1	> 1 µM	> 100 µM	> 100 µM	> 100 µM		> 100 µM	> 100 µM	> 100 µM	> 100 µM								
C1=CC=C2NCCOCCNC3=CC=CC=CC3=NCCOCCN=C2C=C1	> 100 µM		> 100 µM		> 100 µM	> 100 µM	> 100 µM	> 100 µM	76 µM								
COC(=O)C1=C(CS(=O)c2ccccc2[N+](=O)[O-])ON(C)C1c1ccccc1 (configuration not stated)	> 100 µM		> 100 µM		> 100 µM	> 100 µM	> 100 µM	39.3 µM	> 100 µM								
